Results on 14 molecules are retold here after patent US7745390B2, “Antimicrobial peptides” (priority 2005, dated 2010).

The term IC50 denotes the point on the concentration scale where inhibition reaches its midpoint. Read a high IC50 as weaker potency in that assay.

In one experiment the test system is Salmonella. Type of experiment: cell-based, S. typhimurium. Particulars: pH 7.2. The protocol: (§1) The experiments described above characterizing the activity of granulysin peptides G1-G18 relied on counting bacterial colonies on plates. This assay is quite labor intensive and would not allow evaluation of many different compounds on a number of different microbes. Therefore, we optimized an assay in which the entire procedure could be completed in a single microtiter well. Briefly, peptides are diluted in 10 mM phosphate buffer, pH 7.2 supplemented with 0.03% LB (J. Sambrook, D. W. Russell, Molecular Cloning: A Laboratory Manual (Cold Spring Harbor Laboratory Press, New York, ed. 3, 2001) pg. A2.2, Retrieved from http://openwetware.org/wiki/LB) and 25 μl is added to microtiter wells. Bacteria (25 μl) are added (˜5×10^6 colony forming units/ml) in the same buffer. After a 3-hour incubation at 37° C., 150 μl of LB is added and the plates are incubated overnight. The OD at 600 nm is read on an ELISA plate reader. The minimum inhibitory concentration (MIC) is the lowest concentration allowing no bacterial growth. The IC50 is the concentration of peptide that results in 50% growth compared to the medium.
(§2) We now describe additional peptides and their activity. The peptides have been designed, synthesized, and have been tested for lysis of E. coli and S. typhimurium (gram negative bacteria), B. cereus (gram positive bacterium). Results are shown in Table 2 along with the amino acid sequence of the peptide. Changes from the naturally occurring sequence are underlined. In general, the desired result is lysis of bacteria at low concentration (<1 μM).
(§3) In Table 2, Columns 2-7 are the MIC and IC50 (concentration required for 50% inhibition of growth) for each organism (E. coli, Salmonella, and B. cereus). The MIC (minimum inhibitory concentration) was determined as described above, in a multiwell plate assay. […] L-isomer amino acids are designated by capital letters while D-isomer amino acids are designated by lower case letters.

For a further experiment, the system named is E. coli DH5a. Format: cell-based. Particulars: DH5a, pH 7.2. The protocol: as §1, §2, §3
The next experiment has as its system B. cereus. Format: cell-based. Particulars: pH 7.2. The protocol:
as §1, §2, §3

Square brackets hold non-standard residues; d marks the D form. Ends that are not written are not given here. Peptide text beside a SMILES is read from it. Bounds are passed on as bounds.

For the molecule `CC[C@H](C)[C@H](NC(=O)[C@@H](NC(=O)[C@@H](CCCNC(=N)N)NC(=O)[C@H](CO)NC(=O)[C@H](CCC(N)=O)NC(=O)[C@@H](CCCNC(=N)N)NC(=O)[C@@H](CCCNC(=N)N)NC(=O)[C@H](CCSC)NC(=O)[C@H](Cc1ccccc1)NC(=O)[C@@H](CCCNC(=N)N)NC(=O)[C@H](CCCNC(=N)N)NC(=O)[C@H](C)NC(=O)[C@H](NC(=O)[C@H](CC(=O)O)NC(=O)[C@@H](N)CCCNC(=N)N)C(C)C)C(C)C)C(=O)N[C@@H](CO)C(=O)N[C@H](CCCNC(=N)N)C(=O)N[C@@H](CC(C)C)C(=O)N[C@H](C(=O)O)C(C)C` [Peptide G12.16, RDvARrFMrrQSrVISrLV] (H-RD[dV]AR[dR]FM[dR][dR]QS[dR]VIS[dR]LV-OH; N-terminus and C-terminus assumed), in the experiment with Salmonella, 1000 nM corresponded to half-maximal inhibition (IC50) and the “Salmonella MIC” value was found to be 2.8 µM. Also, in the experiment with E. coli DH5a, the “E. coli DH5a MIC” value amounted to 1.39 µM and inhibition was half-maximal at 720 nM (IC50). In the experiment on B. cereus, the “B. cereus MIC” value worked out at 5.6 µM and inhibition was half-maximal at 3510 nM (IC50).

Consider `CC[C@H](C)[C@H](NC(=O)[C@H](NC(=O)[C@H](CCCNC(=N)N)NC(=O)[C@H](CO)NC(=O)[C@H](CCC(N)=O)NC(=O)[C@@H](CCCNC(=N)N)NC(=O)[C@@H](CCCNC(=N)N)NC(=O)[C@H](CCSC)NC(=O)[C@H](Cc1ccccc1)NC(=O)[C@@H](CCCNC(=N)N)NC(=O)[C@H](CCCNC(=N)N)NC(=O)[C@@H](C)NC(=O)[C@@H](NC(=O)[C@H](CC(=O)O)NC(=O)[C@@H](N)CCCNC(=N)N)C(C)C)C(C)C)C(=O)N[C@@H](CO)C(=O)N[C@@H](CCCNC(=N)N)C(=O)N[C@H](CC(C)C)C(=O)N[C@H](C(=O)O)C(C)C` [Peptide G12.17, RDVaRrFMrrQSRvISRlV] (H-RDV[dA]R[dR]FM[dR][dR]QSR[dV]ISR[dL]V-OH; N-terminus and C-terminus assumed), for which, in the experiment on Salmonella, the midpoint of inhibition, the IC50, lay at 1600 nM and the “Salmonella MIC” value worked out at 2.8 µM. In the experiment on E. coli DH5a, the “E. coli DH5a MIC” value stood at 3.3 µM and the half-maximal inhibitory concentration (IC50) turned out to be 890 nM. In the experiment on B. cereus, the “B. cereus MIC” value was determined as 2.8 µM and the IC50 stood at 1750 nM.

With `CC[C@@H](C)[C@@H](NC(=O)[C@@H](NC(=O)[C@H](CCCNC(=N)N)NC(=O)[C@@H](CO)NC(=O)[C@H](CCC(N)=O)NC(=O)[C@@H](CCCNC(=N)N)NC(=O)[C@@H](CCCNC(=N)N)NC(=O)[C@H](CCSC)NC(=O)[C@H](Cc1ccccc1)NC(=O)[C@H](CCCNC(=N)N)NC(=O)[C@H](CCCNC(=N)N)NC(=O)[C@@H](C)NC(=O)[C@@H](NC(=O)[C@H](CC(=O)O)NC(=O)[C@@H](N)CCCNC(=N)N)C(C)C)C(C)C)C(=O)N[C@@H](CO)C(=O)N[C@@H](CCCNC(=N)N)C(=O)N[C@@H](CC(C)C)C(=O)N[C@H](C(=O)O)C(C)C` [Peptide G12.18, RDVaRRFMrrQsRViSRLV] (H-RDV[dA]RRFM[dR][dR]Q[dS]RV[dI]SRLV-OH; N-terminus and C-terminus assumed), in the experiment with Salmonella, half-maximal inhibition (IC50) required 1610 nM and the “Salmonella MIC” value was 2.8 µM. Also, in the experiment with E. coli DH5a, the “E. coli DH5a MIC” value was 2.9 µM and half-maximal inhibition (IC50) was put at 1000 nM. Besides, in the experiment with B. cereus, the “B. cereus MIC” value is 5.6 µM and the IC50 came out at 3510 nM.

In the case of `CSCC[C@@H](NC(=O)[C@H]1CCCN1C(=O)[C@@H](CCCCN)NC(=O)[C@@H](CCCCN)NC(=O)[C@@H](CO)NC(=O)[C@H](NC(=O)[C@@H](CCCCN)NC(=O)[C@@H](CCCCN)NC(=O)[C@@H](CCCCN)NC(=O)[C@@H](CCCCN)NC(=O)[C@@H](CCCCN)NC(=O)[C@@H](CCCCN)NC(=O)[C@H](N)CCCCN)C(C)C)C(=O)N[C@H](CCCCN)C(=O)N[C@H](CCCCN)C(=O)N[C@H](Cc1ccc(O)cc1)C(=O)N[C@H](CCCCN)C(=O)N[C@H](CO)C(=O)N[C@H](CCCCN)C(=O)N[C@H](CCCCN)C(=O)N1CCC[C@@H]1C(=O)N[C@H](CCCCN)C(=O)N[C@H](CCCCN)C(=O)N[C@H](CC(C)C)C(=O)N[C@@H](C(=O)O)C(C)C` [Peptide G12.29, kkkkkkkvskkpmkkykskkpkklv] (H-[dK][dK][dK][dK][dK][dK][dK][dV][dS][dK][dK][dP][dM][dK][dK][dY][dK][dS][dK][dK][dP][dK][dK][dL][dV]-OH; N-terminus and C-terminus assumed), in the experiment with Salmonella, it took 280 nM to reach half-maximal inhibition (IC50) and the “Salmonella MIC” value turned out to be 1.15 µM. Further, in the experiment with E. coli DH5a, the “E. coli DH5a MIC” value came out at 0.15 µM and the IC50 amounted to 100 nM. Also, in the experiment on B. cereus, the “B. cereus MIC” value came to 0.35 µM and the IC50 amounted to 210 nM.

In the case of `CC(C)[C@H](NC(=O)[C@H](CO)NC(=O)[C@H](CCCNC(=N)N)NC(=O)[C@@H](N)CCC(N)=O)C(=O)N[C@@H](CO)C(=O)N[C@@H](CCCNC(=N)N)C(=O)N[C@H](C)C(=O)N[C@H](C)C(=O)N[C@H](C(=O)N[C@@H](CCCNC(=N)N)C(=O)N[C@H](C(=O)N[C@@H](CO)C(=O)N[C@@H](CCCNC(=N)N)C(=O)N[C@H](C(=O)NCC(=O)N[C@@H](CCCNC(=N)N)C(=O)N[C@@H](CO)C(=O)N[C@@H](CCCNC(=N)N)C(=O)N[C@@H](Cc1c[nH]c2ccccc12)C(=O)O)[C@@H](C)O)C(C)C)[C@@H](C)O` [Peptide G13.7, QRSVSRaaTRVSRTGRSRW] (H-QRSVSR[dA][dA]TRVSRTGRSRW-OH; N-terminus and C-terminus assumed), in the experiment on Salmonella, the IC50 is over 10000 nM and the “Salmonella MIC” value is over 10 µM. In the experiment on E. coli DH5a, the “E. coli DH5a MIC” value was 5.7 µM and inhibition was half-maximal at 2850 nM (IC50). In the experiment on B. cereus, the “B. cereus MIC” value is over 10 µM and the IC50 was 7700 nM.

As to `CSCC[C@H](NC(=O)[C@H](Cc1ccccc1)NC(=O)[C@H](CCCNC(=N)N)NC(=O)[C@H](CCCNC(=N)N)NC(=O)[C@H](CO)NC(=O)[C@@H](NC(=O)[C@@H](CC(=O)O)NC(=O)[C@@H](CCCNC(=N)N)NC(=O)[C@H](Cc1c[nH]c2ccccc12)NC(=O)[C@H](CCCNC(=N)N)NC(=O)[C@H](CO)NC(=O)[C@H](CCCNC(=N)N)NC(=O)CN)C(C)C)C(=O)N[C@@H](CCCNC(=N)N)C(=O)N[C@@H](CCCNC(=N)N)C(=O)O` [Peptide G14.10, GRSRWrdVSRRFMRR] (H-GRSRW[dR][dD]VSRRFMRR-OH; N-terminus and C-terminus assumed), in the experiment on Salmonella, half-maximal inhibition (IC50) was put at 890 nM and the “Salmonella MIC” value came out at 1.4 µM. For the same molecule, in the experiment on E. coli DH5a, the “E. coli DH5a MIC” value is 1.25 µM and the IC50 was determined as 450 nM. In addition, in the experiment with B. cereus, the “B. cereus MIC” value was 2.8 µM and the IC50 was found to be 1750 nM.

“FDTPRRVSRRFMRRLGH [Peptide G11.43, FDTPRRVSRRFMRRLGH]”: in the experiment on Salmonella, the IC50 worked out at 3000 nM and the “Salmonella MIC” value is over 10 µM. In the experiment with E. coli DH5a, the “E. coli DH5a MIC” value was 0.75 µM and the IC50 stood at 420 nM. Besides, in the experiment on B. cereus, the “B. cereus MIC” value was 0.75 µM and it took 210 nM to reach half-maximal inhibition (IC50).

With “GRARWRDVARRFMRR [Peptide G14.9, GRARWRDVARRFMRR]”, in the experiment on Salmonella, the IC50 worked out at 440 nM and the “Salmonella MIC” value was 0.65 µM. In the experiment with E. coli DH5a, the “E. coli DH5a MIC” value came out at 1.38 µM and the IC50 was 810 nM. Moreover, in the experiment on B. cereus, the “B. cereus MIC” value was found to be 1.37 µM and the IC50 was 850 nM.

With “GRSGWRDVSRNFRRG [Peptide G14.12, GRSGWRDVSRNFRRG]”, in the experiment on Salmonella, the IC50 was over 10000 nM and the “Salmonella MIC” value was over 10 µM. For the same molecule, in the experiment with E. coli DH5a, the “E. coli DH5a MIC” value is over 10 µM and half-maximal inhibition (IC50) required 6750 nM. Also, in the experiment on B. cereus, the “B. cereus MIC” value is over 10 µM and the IC50 is over 10000 nM.

As to “GRSLWRDVSRNFMRR [Peptide G14.13, GRSLWRDVSRNFMRR]”, in the experiment with Salmonella, 7600 nM corresponded to half-maximal inhibition (IC50) and the “Salmonella MIC” value is over 10 µM. In the experiment with E. coli DH5a, the “E. coli DH5a MIC” value was 5.6 µM and the IC50 is 1850 nM. Further, in the experiment on B. cereus, the “B. cereus MIC” value was over 10 µM and the IC50 was over 10000 nM.

Take “GRSRWRDVSRNFMRR [Peptide G14.1, GRSRWRDVSRNFMRR]”: in the experiment with Salmonella, the IC50 was 1750 nM and the “Salmonella MIC” value was 2.8 µM. In the experiment on E. coli DH5a, the “E. coli DH5a MIC” value was 1.37 µM and inhibition was half-maximal at 890 nM (IC50). In the experiment on B. cereus, the “B. cereus MIC” value is over 10 µM and the IC50 worked out at 7660 nM.

For “GRSRWRDVSRRFMRR [Peptide G14.2, GRSRWRDVSRRFMRR]”, in the experiment with Salmonella, half-maximal inhibition (IC50) was put at 860 nM and the “Salmonella MIC” value came to 1.4 µM. For the same molecule, in the experiment with E. coli DH5a, the “E. coli DH5a MIC” value is 1.45 µM and half-maximal inhibition (IC50) required 850 nM. For the same molecule, in the experiment on B. cereus, the “B. cereus MIC” value turned out to be 2.8 µM and the IC50 is 1750 nM.

For the molecule “GSRRWRDVSRRFMRR [Peptide G14.14, GSRRWRDVSRRFMRR]”, in the experiment with Salmonella, the IC50 is 210 nM and the “Salmonella MIC” value came out at 0.7 µM. Further, in the experiment on E. coli DH5a, the “E. coli DH5a MIC” value was 0.17 µM and half-maximal inhibition (IC50) was put at 110 nM. In the experiment with B. cereus, the “B. cereus MIC” value was determined as 0.35 µM and the IC50 came to 210 nM.

Regarding KKVSKKFMKK [Peptide G11.8, KKVSKKFMKK], in the experiment on Salmonella, the IC50 was over 10000 nM and the “Salmonella MIC” value is over 10 µM. In addition, in the experiment with E. coli DH5a, the “E. coli DH5a MIC” value is over 10 µM and the IC50 was over 10000 nM. Further, in the experiment with B. cereus, the “B. cereus MIC” value was over 10 µM and the IC50 is over 10000 nM.
